Test [1] deals with T1, cyclooxygenase (Ovis aries, UniProt P05979).
T1 construct: sheep seminal vesicle microsome, which is a crude enzyme solution; from tissue; host or cells: sheep seminal vesicle microsomes (crude enzyme solution)
T1 sequence (P05979 25-600): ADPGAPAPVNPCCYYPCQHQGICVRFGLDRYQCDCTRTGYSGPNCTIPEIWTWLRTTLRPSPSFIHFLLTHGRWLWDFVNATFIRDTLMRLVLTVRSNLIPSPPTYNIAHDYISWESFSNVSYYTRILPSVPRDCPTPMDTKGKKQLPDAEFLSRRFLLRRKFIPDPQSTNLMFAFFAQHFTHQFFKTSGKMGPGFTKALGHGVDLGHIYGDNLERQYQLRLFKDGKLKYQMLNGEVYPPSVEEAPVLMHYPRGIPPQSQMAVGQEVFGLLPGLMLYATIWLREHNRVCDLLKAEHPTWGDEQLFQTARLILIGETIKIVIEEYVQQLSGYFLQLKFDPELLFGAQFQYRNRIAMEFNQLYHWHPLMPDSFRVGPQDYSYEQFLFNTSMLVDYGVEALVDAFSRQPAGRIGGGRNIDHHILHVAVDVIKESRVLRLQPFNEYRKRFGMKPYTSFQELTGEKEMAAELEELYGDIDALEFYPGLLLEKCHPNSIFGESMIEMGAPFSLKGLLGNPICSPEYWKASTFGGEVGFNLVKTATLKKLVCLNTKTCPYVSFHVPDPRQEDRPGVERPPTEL
In words: Cyclooxygenase inhibitory activity test 2 (fixed concentration, sheep seminal vesicle microsome). To be noted: same fixed concentration, 3×10^-7 M; PGE2 producing rate compared with control group. The test is classed as biochemical. The method, then:
The preparation of sheep seminal vesicle microsome, which is a crude enzyme solution, and the analysis of the cyclooxygenase activity were carried out according to the method of Miyamoto et al. as follows [cf.
(§1) That is, a test compound was added to a microsome solution, and the mixture was incubated at 24° C. for two minutes, and then, thereto was added a substrate, ^14 C-arachidonic acid. The mixture was further incubated for two minutes, and the reaction was quenched with a mixture of ether/methanol/0.2M citric acid (30:4:1), and extracted to collect a product produced by cyclooxygenase. The extract was spotted on a thin layer plate and the plate was developed. The fractions containing the arachidonic acid, prostaglandin E2 (PGE2) and the other parts were collected by scratching, respectively. Each part was measured with a scintillation counter, by which the cyclooxygenase activity therein was estimated.

The target in test [2] is T1, cyclooxygenase. Kind of test: Cyclooxygenase inhibitory activity test 1 (sheep seminal vesicle microsome, 14C-arachidonic acid). The test is classed as biochemical. As for the experimental part: Cyclooxygenase inhibitory activity test 1:
The preparation of sheep seminal vesicle microsome, which is a crude enzyme solution, and the analysis of the cyclooxygenase activity were carried out according to the method of Miyamoto et al. as follows [cf. Proc. Natl. Acad. Sci., U.S.A., 71, 3645 (1974) and J. Biol. Chem., 251, 2629 (1976)].
as §1
The compounds prepared in Examples 2, 38, 44 and 46 were tested in the above experiment, and there were obtained the concentrations of the test compounds required to reduce the cyclooxygenase activity to 50% (cyclooxygenase inhibitory rate; IC50 value).

SMILES strings stand for the structures.

By inhibition is commonly meant the relative decrease from the control value, in per cent. Low values mean a response near the control, high ones a response far below the control. With `Cc1cc(Nc2cc(C(C)(C)C)c(O)c(C(C)(C)C)c2)n2nccc2n1` [Example 2, 5-methyl-7-(3,5-di-t-butyl-4-hydroxyphenyl)aminopyrazolo[1,5-a]pyrimidine], on cyclooxygenase [1], 0.3 µM produced 65% inhibition. Further, the “IC50 value relative to that of indomethacin ("times as high as that of indomethacin")” value at cyclooxygenase [2] (reference compound indomethacin) worked out at 27.8 times. The IC50 on cyclooxygenase [2] (sheep seminal vesicle microsome, 24° C., two minutes preincubation, two minutes with 14C-arachidonic acid, read-out: IC50 value (concentration required to reduce the cyclooxygenase activity to 50%)) was 300 nM.

`CCCCc1cc(Nc2cc(C(C)(C)C)c(O)c(C(C)(C)C)c2)n2nccc2n1` [Example 38] registered an inhibition at 0.3 µM against cyclooxygenase [1] of 48.2%.

In turn, `CCc1cc(Nc2cc(C(C)(C)C)c(O)c(C(C)(C)C)c2)n2nccc2n1` [Example 44] came in with an inhibition at 0.3 µM against cyclooxygenase [1] of 55.9%.

As for `CC(C)(C)c1cc(Nc2cc(C3CC3)nc3ccnn23)cc(C(C)(C)C)c1O` [Example 46], the inhibition at 0.3 µM against cyclooxygenase [1] is 50.5%.

The values above are taken from patent publication US5688949A, “Pyrazolo[1,5-A]pyrimidine derivatives and anti-inflammatory agent containing the same” (Otsuka Pharmaceutical Factory, Inc., priority 1991, dated 1997).
